In PubChem BioAssay (NCI):
“And” between values parts separate entries of the source, which are not always exact repeats. Equal values may be shown once.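 Cultured in 96-well plates, cells were exposed to test compound for 48 hours across five concentrations. Abbreviation: GI50, concentration required for 50% inhibition of growth. TGI: total growth inhibition.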

Legend:
Assay in all cases: growth of human tumour cells (NCI), 48 h
RPMI-8226 leukemia = tested on: RPMI-8226 leukemia
SN12C renal = tested on: SN12C renal
A549 NSCLC = tested on: A549 NSCLC
786-0 renal = tested on: 786-0 renal
SNB-19 CNS = tested on: SNB-19 CNS
HL-60(TB) leukemia = tested on: HL-60(TB) leukemia
SK-MEL-28 melanoma = tested on: SK-MEL-28 melanoma
SK-MEL-2 melanoma = tested on: SK-MEL-2 melanoma
LOX IMVI melanoma = tested on: LOX IMVI melanoma

SMILES: C[n+]1c(-c2ccc(/C=N/NC(=N)N/N=C/c3ccc(-c4cn5cc(Cl)ccc5[n+]4C)cc3)cc2)cn2cc(Cl)ccc21
- TGI (RPMI-8226 leukemia): > 100 µM
- TGI (SN12C renal): > 100 µM
- TGI (A549 NSCLC): > 100 µM
- TGI (786-0 renal): > 100 µM
- TGI (SNB-19 CNS): > 100 µM
- TGI (HL-60(TB) leukemia): > 100 µM
- TGI (SK-MEL-28 melanoma): > 100 µM

SMILES: O=C1c2ccc(O)cc2C(=O)c2ccc(O)cc21
- TGI (SK-MEL-2 melanoma): > 100 µM
- TGI (RPMI-8226 leukemia): > 100 µM
- TGI (LOX IMVI melanoma): > 100 µM
- TGI (SN12C renal): > 100 µM
- TGI (A549 NSCLC): > 100 µM
- TGI (786-0 renal): > 100 µM
- TGI (SNB-19 CNS): > 100 µM
- TGI (HL-60(TB) leukemia): > 100 µM
- TGI (SK-MEL-28 melanoma): > 100 µM

SMILES: COc1cc2c(c(OC)c1OC)-c1ccc(SC)c(=O)cc1[C@@H](NCc1ccc(C#N)cc1)CC2
- TGI (RPMI-8226 leukemia): > 100 µM
- TGI (LOX IMVI melanoma): 55.1 µM
- TGI (SN12C renal): > 100 µM
- TGI (A549 NSCLC): 28.6 µM
- TGI (786-0 renal): 48.9 µM
- TGI (SNB-19 CNS): > 100 µM
- TGI (HL-60(TB) leukemia): 0.0089 µM

SMILES: CC(C)(C)N=NNc1cn(C2OC(CO)C(O)C2O)c(=O)[nH]c1=O (configuration not stated)
- TGI (SK-MEL-2 melanoma): > 100 µM
- TGI (RPMI-8226 leukemia): 42.7 µM
- TGI (LOX IMVI melanoma): > 100 µM
- TGI (SN12C renal): > 100 µM
- TGI (A549 NSCLC): > 100 µM
- TGI (786-0 renal): > 100 µM
- TGI (SNB-19 CNS): > 100 µM
- TGI (HL-60(TB) leukemia): > 100 µM
- TGI (SK-MEL-28 melanoma): > 100 µM

SMILES: COc1cc2c(cc1OC)C(C(CO)CO)N(CC(O)CCl)CC2 (configuration not stated)
- TGI (SK-MEL-2 melanoma): > 100 µM
- TGI (RPMI-8226 leukemia): > 100 µM
- TGI (LOX IMVI melanoma): > 100 µM
- TGI (A549 NSCLC): > 100 µM
- TGI (786-0 renal): > 100 µM
- TGI (SNB-19 CNS): > 100 µM
- TGI (HL-60(TB) leukemia): > 100 µM
- TGI (SK-MEL-28 melanoma): > 100 µM

SMILES: Cc1c(Cl)c2ccccc2n1S(=O)(=O)c1ccccc1
- TGI (SK-MEL-2 melanoma): > 100 µM
- TGI (RPMI-8226 leukemia): 86 µM
- TGI (A549 NSCLC): > 100 µM
- TGI (786-0 renal): > 100 µM
- TGI (SNB-19 CNS): > 100 µM
- TGI (HL-60(TB) leukemia): 78.8 µM
- TGI (SK-MEL-28 melanoma): > 100 µM

SMILES: CCc1cc(Cc2cc(Cl)c(NC(=O)C(=O)C3NC(=O)NC3=O)c(CC)c2)cc(Cl)c1NC(=O)C(=O)C1NC(=O)NC1=O (configuration not stated)
- TGI (SK-MEL-2 melanoma): > 100 µM
- TGI (RPMI-8226 leukemia): > 100 µM
- TGI (LOX IMVI melanoma): > 100 µM
- TGI (SN12C renal): > 100 µM
- TGI (A549 NSCLC): > 100 µM
- TGI (786-0 renal): > 100 µM
- TGI (SNB-19 CNS): > 100 µM
- TGI (HL-60(TB) leukemia): > 100 µM
- TGI (SK-MEL-28 melanoma): > 100 µM

SMILES: Cc1ccc(S(=O)(=O)N/N=C(\c2nc3ccc(Cl)cc3[nH]c2=O)C(O)c2cccc([N+](=O)[O-])c2)cc1 (configuration not stated)
- TGI (SK-MEL-2 melanoma): > 100 µM
- TGI (RPMI-8226 leukemia): > 100 µM
- TGI (LOX IMVI melanoma): > 100 µM
- TGI (SN12C renal): > 100 µM
- TGI (A549 NSCLC): > 100 µM
- TGI (786-0 renal): > 100 µM
- TGI (SNB-19 CNS): > 100 µM
- TGI (HL-60(TB) leukemia): > 100 µM
- TGI (SK-MEL-28 melanoma): > 100 µM

SMILES: C[C@]12CCC(=O)C=C1CC[C@@H]1[C@@H]2[C@@H](O)C[C@@]2(C)[C@H]1CC[C@]2(O)C(=O)COC(=O)COCC(=O)O
- TGI (SK-MEL-2 melanoma): > 100 µM
- TGI (RPMI-8226 leukemia): > 100 µM
- TGI (LOX IMVI melanoma): > 100 µM
- TGI (SN12C renal): > 100 µM
- TGI (A549 NSCLC): > 100 µM
- TGI (786-0 renal): > 100 µM
- TGI (SNB-19 CNS): > 100 µM
- TGI (HL-60(TB) leukemia): > 100 µM
- TGI (SK-MEL-28 melanoma): > 100 µM

SMILES: O=C(c1ccc(Cl)cc1)c1ccc(OCCCOc2ccc(C(=O)c3ccc(Cl)cc3)cc2)cc1
- TGI (SK-MEL-2 melanoma): > 100 µM
- TGI (RPMI-8226 leukemia): > 100 µM
- TGI (LOX IMVI melanoma): > 100 µM
- TGI (SN12C renal): > 100 µM
- TGI (A549 NSCLC): > 100 µM
- TGI (786-0 renal): > 100 µM
- TGI (SNB-19 CNS): > 100 µM
- TGI (HL-60(TB) leukemia): > 100 µM
- TGI (SK-MEL-28 melanoma): > 100 µM

SMILES: O=c1[nH]c(=O)n(C2OC(COP(=O)(O)OP(=O)(O)OC3OC(CO)C(O)C(O)C3O)C(O)C2O)cc1F (configuration not stated)
- TGI (SK-MEL-2 melanoma): > 91.3 µM
- TGI (LOX IMVI melanoma): 4.13 µM
- TGI (SN12C renal): > 100 µM
- TGI (A549 NSCLC): 8.56 µM
- TGI (786-0 renal): 2.68 µM
- TGI (SNB-19 CNS): > 100 µM
- TGI (HL-60(TB) leukemia): > 100 µM
- TGI (SK-MEL-28 melanoma): > 100 µM

SMILES: O=C1Nc2ccccc2C12CCNC2Cc1ccccc1 (configuration not stated)
- TGI (SK-MEL-2 melanoma): > 100 µM
- TGI (RPMI-8226 leukemia): > 100 µM
- TGI (LOX IMVI melanoma): > 100 µM
- TGI (A549 NSCLC): > 100 µM
- TGI (786-0 renal): > 100 µM
- TGI (SNB-19 CNS): > 100 µM
- TGI (HL-60(TB) leukemia): > 100 µM
- TGI (SK-MEL-28 melanoma): > 100 µM

SMILES: CCOC(=O)c1cc(-c2cc(OC)c(OC)c([N+](=O)[O-])c2)c([N+](=O)[O-])n1C
- TGI (SK-MEL-2 melanoma): > 10 µM
- TGI (SN12C renal): > 10 µM
- TGI (A549 NSCLC): > 10 µM
- TGI (786-0 renal): > 10 µM
- TGI (SNB-19 CNS): > 10 µM
- TGI (HL-60(TB) leukemia): > 10 µM

SMILES: O=S(=O)(CCBr)CCBr
- TGI (SK-MEL-2 melanoma): 26 µM
- TGI (RPMI-8226 leukemia): 12.1 µM
- TGI (LOX IMVI melanoma): 21.8 µM
- TGI (SN12C renal): 21.8 µM
- TGI (A549 NSCLC): 27.8 µM
- TGI (SNB-19 CNS): 35 µM
- TGI (HL-60(TB) leukemia): 5.93 µM
- TGI (SK-MEL-28 melanoma): 8.61 µM

SMILES: NC(CCCC(N)P(=O)(O)c1ccccc1)P(=O)(O)c1ccccc1 (configuration not stated)
- TGI (SK-MEL-2 melanoma): > 261 µM
- TGI (RPMI-8226 leukemia): > 261 µM
- TGI (LOX IMVI melanoma): > 261 µM
- TGI (SN12C renal): > 261 µM
- TGI (A549 NSCLC): > 261 µM
- TGI (786-0 renal): > 261 µM
- TGI (SNB-19 CNS): > 261 µM
- TGI (HL-60(TB) leukemia): > 261 µM
- TGI (SK-MEL-28 melanoma): > 261 µM

SMILES: COc1cc(C2c3cc4c(cc3[C@@H](Nc3ccccc3)C3COC[C@H]23)OCO4)cc(OC)c1O (some centres not stated)
- TGI (RPMI-8226 leukemia): 5.22 µM
- TGI (SN12C renal): 54.3 µM
- TGI (A549 NSCLC): 14 µM
- TGI (786-0 renal): 2.3 µM
- TGI (SNB-19 CNS): > 100 µM
- TGI (SK-MEL-28 melanoma): 39.1 µM

SMILES: COc1ccc(-c2cc(=O)c3cc4c(cc3[nH]2)OCO4)cc1OC
- TGI (SK-MEL-2 melanoma): > 100 µM
- TGI (RPMI-8226 leukemia): > 100 µM
- TGI (LOX IMVI melanoma): > 100 µM
- TGI (SN12C renal): > 100 µM
- TGI (A549 NSCLC): > 100 µM
- TGI (786-0 renal): > 100 µM
- TGI (SNB-19 CNS): > 100 µM
- TGI (HL-60(TB) leukemia): > 100 µM
- TGI (SK-MEL-28 melanoma): > 100 µM

SMILES: CCOC(=O)C1(C/C=C(/C)Cl)CCCC1=O (configuration not stated)
- TGI (SK-MEL-2 melanoma): > 100 µM
- TGI (RPMI-8226 leukemia): 53.6 µM
- TGI (LOX IMVI melanoma): > 100 µM
- TGI (SN12C renal): > 100 µM
- TGI (A549 NSCLC): > 100 µM
- TGI (786-0 renal): > 100 µM
- TGI (SNB-19 CNS): > 100 µM
- TGI (HL-60(TB) leukemia): > 100 µM
- TGI (SK-MEL-28 melanoma): > 100 µM

SMILES: N[C@H](C(=O)O)[C@H]1ON=C(Cl)[C@@H]1O
- GI50 (SK-MEL-2 melanoma): 9.75 µM
- TGI (SK-MEL-2 melanoma): > 550 µM
- GI50 (RPMI-8226 leukemia): 10.9 µM
- TGI (RPMI-8226 leukemia): > 97.1 µM and 233 µM
- GI50 (LOX IMVI melanoma): 1.54 µM
- TGI (LOX IMVI melanoma): > 550 µM
- GI50 (SN12C renal): 13.6 µM
- TGI (SN12C renal): > 550 µM
- GI50 (A549 NSCLC): 3.79 µM
- TGI (A549 NSCLC): > 550 µM
- GI50 (SNB-19 CNS): 40.7 µM
- TGI (SNB-19 CNS): > 550 µM
- GI50 (HL-60(TB) leukemia): 13.1 µM
- TGI (HL-60(TB) leukemia): 222 µM
- GI50 (SK-MEL-28 melanoma): 28.4 µM
- TGI (SK-MEL-28 melanoma): > 550 µM
